US10173999B2, “Cyclic amine derivative and pharmaceutical use thereof” (Toray Industries, Inc., priority 2015, dated 2019)
Counter-ions that a name gives are not always drawn. One block for each compound: values may come before it.

Legend:
[1] = system: mouse partial sciatic nerve ligation model (neuropathic pain); experiment: Mouse partial sciatic nerve ligation model (Seltzer model), von Frey test; assay type: in vivo; details: for dose from which a statistically significant analgesic action started / persistence of analgesic action / time of strongest analgesic action after oral administration: oral administration; for dose from which a statistically significant analgesic action started: von Frey test; for persistence of analgesic action / time of strongest analgesic action after oral administration: von Frey test at 1, 2, 3 h
Protocol: The mouse partial sciatic nerve ligation model was prepared in accordance with the method of Seltzer et al. (Malmberg et al., Pain, vol. 76, p. 215-222, 1998).
Slc: ICR mice (5 weeks old, male; from Japan SLC, Inc.) or Cr1: CD1 (ICR) mice (5 weeks old, male; from CHARLES RIVER LABORATORIES JAPAN, INC.) were anesthetized with sodium pentobarbital (70 mg/kg, intraperitoneal administration). The sciatic nerve at the femoral region of the right hind paw of each mouse was exposed and triply ligated tightly with silk suture of 8-0 (from NATSUME SEISAKUSHO CO., LTD.) under a stereomicroscope so that only half thickness of the nerve was trapped in the ligature. A group of mice thus treated was designated as a partial sciatic nerve ligation group. A group of mice whose sciatic nerve was just exposed and not ligated was designated as a sham surgery group.
Evaluation of neuropathic pain (hereinafter referred to as von Frey test) was performed as follows. Mice were conditioned for at least one hour in an acrylic cage for measurement (from NATSUME SEISAKUSHO CO. LTD. or SHINANO SEISAKUSHO) placed on a wire net. Thereafter, using a filament (from North Coast Medical or neuroscience) which exerted a pressure of 0.16 g, the mice were subjected to mechanical tactile stimulus by applying the filament to the plantar surface of the right hind paw 3 times, each for 3 seconds, with an interval of 3 seconds.
Seven days after the sciatic nerve ligation surgery, the compound of Example 1, 2, 3, 4, 5, 7, 8, 9, 10, 11, 12 or 13 (10 mg/kg for each of the compounds of Example 1, 2, 3, 4, 5, 8, 10 and 13, 0.01 to 1 mg/kg for the compound of Example 7, 0.01 to 10 mg/kg for the compound of Example 9; 0.001 to 0.1 mg/kg for the compound of Example 11; and 0.01 to 1 mg/kg for the compound of Example 12) or pregabalin as a positive control (10 mg/kg; Bosche Scientific) was dissolved in distilled water and orally administered to mice of the partial sciatic nerve ligation group. The groups of the mice in the partial sciatic nerve ligation mouse to which the compound of Example 1, 2, 3, 4, 5, 7, 8, 9, 10, 11, 12 or 13 was administered were designated as a “partial sciatic nerve ligation+the compound of Example 1” group; a “partial sciatic nerve ligation+the compound of Example 2” group; a “partial sciatic nerve ligation+the compound of Example 3” group; a “partial sciatic nerve ligation+the compound of Example 4” group; a “partial sciatic nerve ligation+the compound of Example 5” group; a “partial sciatic nerve ligation+the compound of Example 7” group; a “partial sciatic nerve ligation+the compound of Example 8” group; a “partial sciatic nerve ligation+the compound of Example 9” group; a “partial sciatic nerve ligation+the compound of Example 10” group; a “partial sciatic nerve ligation+the compound of Example 11” group; a “partial sciatic nerve ligation+the compound of Example 12” group; and a “partial sciatic nerve ligation+the compound of Example 13” group, respectively. The partial sciatic nerve ligation mouse group to which pregabalin was administered was designated as a “partial sciatic nerve ligation+pregabalin” group. A group wherein distilled water was orally administered to the mice of the partial sciatic nerve ligation group was designated as a “partial sciatic nerve ligation+distilled water” group. A group wherein distilled water was orally administered to the mice of the sham surgery group was designated as a “sham surgery+distilled water” group.
The von Frey test was carried out before oral administration of a test compound (pre-value), one hour, two hours, and three hours after the oral administration of a test compound.
Slc: ICR mice (5 weeks old, male; Japan SLC, Inc.) were anesthetized with sodium pentobarbital (70 mg/kg, intraperitoneal administration).

[2] = system: mouse partial sciatic nerve ligation model (neuropathic pain); experiment: as above; assay type: in vivo; details: Comparative Example 7: oral, 7 days after ligation, 1-3 h after dosing; 0.01-1 mg/kg (Comp Ex 1), 10 mg/kg (Comp Ex 3-6, pregabalin); vs ligation+distilled water; t-test corrected by Dunnett
[3] = system: Canine aortic smooth muscle cells; experiment: Inducibility of cytoplasmic vacuolation in canine aortic smooth muscle cells; assay type: cell-based; design: key: Present: The term “present” in the tables means that cytoplasmic vacuolation was observed; Absent: the term “absent” means that cytoplasmic vacuolation was not observed; details: Concentration: 1.0 mmol/L, Treatment time: 24 hours
Protocol: As a test compound, the compound of Example 3, 9, 11, 12 or compounds of Comparative Examples 2 to 6 were used. Canine aortic smooth muscle cells (Canine Aortic Smooth Muscle Cells, supply source: Toyobo Co., Ltd.) or human aortic smooth muscle cells of (T/G HA-VSMG, supply source: ATCC) were treated with a test compound (1.0 or 1.2 mmol/L in concentration) for 24 hours or 2 weeks. The cells were stained with HE, immunohistochemically for LAMP-2 or toluidine blue, and thereafter the presence or absence of cytoplasmic vacuolation was determined by using an optical microscope.

SMILES: CN(C)C1CCN(C(=O)CCc2nccn2C)CC1 [Comparative Example 1, 1-(4-(dimethylamino)piperidin-1-yl)-3-(1-methyl-1H-imidazol-2-yl)propan-1-one hydrochloride]
dose from which a statistically significant analgesic action started [1]: 10 µg/kg
persistence of analgesic action [1]: tended to decrease 2 hours and 3 hours later
time of strongest analgesic action after oral administration [1]: one
analgesic action in von Frey test (total score) [2]: statistically significant analgesic action

SMILES: CN(C)C1CCN(C(=O)C[C@H](O)c2nccn2C)CC1 [Example 11, (S)-1-(4-(dimethylamino)piperidin-1-yl)-3-hydroxy-3-(1-methyl-1H-imidazol-2-yl)propan-1-one]
time the analgesic action lasted after oral administration ([1]; dose of 0.1 mg/kg): 3 h
time the analgesic action lasted after oral administration ([1]; from a dose of 0.001 mg/kg): 2 h
analgesic action in von Frey test (total score) ([1]; mouse, in vivo): statistically significant analgesic action
dose from which a statistically significant analgesic action started [1]: 1 µg/kg
Inducibility of cytoplasmic vacuolation [3]: Absent

Inducibility of cytoplasmic vacuolation [3]: Present
SMILES: CC(C)n1ccnc1CCC(=O)N1CCC(N(C)C)CC1 [Comparative Example 6, 1-(4-(dimethylamino)piperidin-1-yl)-3-(1-isopropyl-1H-imidazol-2-yl)propan-1-one hydrochloride]
persistence of analgesic action [1]: tended to decrease 2 hours and 3 hours later
time of strongest analgesic action after oral administration [1]: one
analgesic action in von Frey test (total score) [2]: statistically significant analgesic action
